The results in this text go back to ChEMBL document CHEMBL1150082, “Antheliatin and Zahavins A and B, Three New Cytotoxic Xenicane Diterpenes from Two Soft Corals” (J Nat Prod, 1995).

What all share (format): functional, cell-based
The test system of one assay is P388. The experiment in a line: Cytotoxicity against mouse P388 cells.
The subject of a further assay is A549. Briefly: Cytotoxicity against human A549 cells.
The subject of the next assay is SK-MEL-28. Briefly: Cytotoxicity against human SK-MEL-28 cells.
The test system of a further assay is HT-29. The experiment in a line: Cytotoxicity against human HT-29 cells.

In brackets after ≈: the same amount, converted by molar mass.

With `C=C1[C@H]2[C@@H](OC(C)=O)OC=C([C@H](OC(C)=O)[C@@H](C=C(C)C)OC(=O)c3ccccc3)[C@H]2CC/C(C)=C/[C@H](OC(C)=O)[C@H]1O` [ANTHELIATIN], the IC50 in the assay with P388 turned out to be 1 µg/mL (≈ 1.68 µM); with A549, 1 µg/mL (≈ 1.68 µM); in the assay with SK-MEL-28, 1 µg/mL (≈ 1.68 µM); in the assay on HT-29 it was 0.1 µg/mL (≈ 0.168 µM).

As to `C=C(C)C(CC(OC(C)=O)C1=CO[C@H](OC(C)=O)[C@H]2C(=C)CC/C=C(\C)CC[C@H]12)OC(C)=O` (some centres not stated) [ZAHAVIN A], the IC50 in the assay with P388, with A549, with SK-MEL-28 and in the assay with HT-29 was 1 µg/mL (≈ 2.17 µM) throughout.

Consider `C=C(C)C(CC(OC(C)=O)C1=CO[C@H](OC(C)=O)[C@@H]2C(=C)[C@H](O)C/C=C(\C)CC[C@H]12)OC(C)=O` (some centres not stated) [ZAHAVIN B], for which the half-maximal inhibitory concentration (IC50) in the assay on P388, in the assay on A549, with SK-MEL-28 and with HT-29 was 1 µg/mL (≈ 2.1 µM) in each case.

A word on the IC50: it is the concentration that gives 50% inhibition. Low values mean greater potency in that assay, high ones weaker potency in that assay.
